Measurements as given in the NIST ThermoML archive (doi:10.1021/acs.jced.5b00242).

Assays:
[1] = refractive index (Na D-line) (dimensionless); xn = mol fraction of the nth substance listed; details: 101 kPa, Liquid, Standard Abbe refractometry
[2] = xn = mol fraction of the nth substance listed; details: 101 kPa, Liquid; for viscosity: Stabinger viscometer; for mass density: Vibrating tube method

CCn1cc[n+](C)c1.NCC(=O)[O-] [1-ethyl-3-methylimidazolium ammonioacetate] + CCn1cc[n+](C)c1.N#C[C-](C#N)C#N
Details	mass density, [2] [kg/m3]	refractive index, [1]	viscosity, [2] [mPa·s]
293.15 K, x2 = 0	1164.3	1.52134	240.18
293.15 K, x2 = 0.2498	1140.2	1.52032	94.03
293.15 K, x2 = 0.5001	1118.4	1.51815	53.98
293.15 K, x2 = 0.7501	1101.2	1.51562	29.05
298.15 K, x2 = 0	1161.2	1.51997	171.97
298.15 K, x2 = 0.2498	1136.9	1.51892	70.85
298.15 K, x2 = 0.5001	1115	1.51656	42.14
298.15 K, x2 = 0.7501	1097.8	1.51399	23.45
303.15 K, x2 = 0	1158.1	1.5186	126.19
303.15 K, x2 = 0.2498	1133.7	1.51743	54.7
303.15 K, x2 = 0.5001	1111.7	1.51505	33.55
303.15 K, x2 = 0.7501	1094.4	1.51238	19.43
308.15 K, x2 = 0	1155	1.51724	95.04
308.15 K, x2 = 0.2498	1130.5	1.51596	43.19
308.15 K, x2 = 0.5001	1108.4	1.51355	27.19
308.15 K, x2 = 0.7501	1091	1.5108	16.35
313.15 K, x2 = 0	1152	1.51585	73.5
313.15 K, x2 = 0.2498	1127.3	1.51457	34.81
313.15 K, x2 = 0.5001	1105.2	1.51205	22.25
313.15 K, x2 = 0.7501	1087.7	1.50922	13.9
318.15 K, x2 = 0	1149	1.5145	57.66
318.15 K, x2 = 0.2498	1124.3	1.51315	28.43
318.15 K, x2 = 0.5001	1102.1	1.51057	18.69
318.15 K, x2 = 0.7501	1084.4	1.50764	12.02
323.15 K, x2 = 0	1146	1.51313	46.21
323.15 K, x2 = 0.2498	1121.1	1.51173	23.59
323.15 K, x2 = 0.5001	1098.9	1.50908	15.89
323.15 K, x2 = 0.7501	1081	1.50609	10.47
328.15 K, x2 = 0	1143	1.51179	37.66
328.15 K, x2 = 0.2498	1118	1.51031	19.87
328.15 K, x2 = 0.5001	1095.7	1.5076	13.84
328.15 K, x2 = 0.7501	1077.7	1.50449	9.21
333.15 K, x2 = 0	1139.9	1.51041	31.24
333.15 K, x2 = 0.2498	1114.8	1.5089	16.92
333.15 K, x2 = 0.5001	1092.5	1.50613	11.88
333.15 K, x2 = 0.7501	1074.5	1.50295	8.12
338.15 K, x2 = 0	1136.9	1.50904	26.08
338.15 K, x2 = 0.2498	1111.7	1.50751	14.58
338.15 K, x2 = 0.5001	1089.3	1.50462	10.47
338.15 K, x2 = 0.7501	1071.2	1.50143	7.29
343.15 K, x2 = 0	1133.8	1.50769	22.11
343.15 K, x2 = 0.2498	1108.6	1.50614	12.67
343.15 K, x2 = 0.5001	1086.1	1.50315	9.233
343.15 K, x2 = 0.7501	1068	1.49987	6.55
348.15 K, x2 = 0	1130.7	1.50637	18.95
348.15 K, x2 = 0.2498	1105.5	1.50472	11.1
348.15 K, x2 = 0.5001	1082.9	1.5017	8.191
348.15 K, x2 = 0.7501	1064.7	1.49834	5.92
353.15 K, x2 = 0	1127.4	1.50495	16.45
353.15 K, x2 = 0.2498	1102.4	1.50334	9.77
353.15 K, x2 = 0.5001	1079.7	1.50021	7.189
353.15 K, x2 = 0.7501	1061.5	1.49682	5.35
